In patent US12570642B2, “GLP-IR modulating compounds” (Gilead Sciences, Inc., priority 2021, dated 2026):

Biological target: GLP-1R (Homo sapiens, UniProt P43220)
Assay: GLP-1R Activation - cAMP Assay
Type: cell-based
Conditions: cAMP increase in CHO cells stably expressing GLP-1R; each compound run on one of the two cAMP assays (Assay 1 or Assay 2, not specified)
In short: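 cAMP rise read by HTRF after 30 min agonist exposure (10-point titration, 37 °C) in HBSS/20 mM Hepes/0.1% BSA, following 1 h pre-incubation. Cells: stable GLP-1R CHO line, 1,000/well, seeded overnight. Sigmoidal fit of response vs log concentration gives EC50.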

GLP-1R, sequence (P43220 24-463): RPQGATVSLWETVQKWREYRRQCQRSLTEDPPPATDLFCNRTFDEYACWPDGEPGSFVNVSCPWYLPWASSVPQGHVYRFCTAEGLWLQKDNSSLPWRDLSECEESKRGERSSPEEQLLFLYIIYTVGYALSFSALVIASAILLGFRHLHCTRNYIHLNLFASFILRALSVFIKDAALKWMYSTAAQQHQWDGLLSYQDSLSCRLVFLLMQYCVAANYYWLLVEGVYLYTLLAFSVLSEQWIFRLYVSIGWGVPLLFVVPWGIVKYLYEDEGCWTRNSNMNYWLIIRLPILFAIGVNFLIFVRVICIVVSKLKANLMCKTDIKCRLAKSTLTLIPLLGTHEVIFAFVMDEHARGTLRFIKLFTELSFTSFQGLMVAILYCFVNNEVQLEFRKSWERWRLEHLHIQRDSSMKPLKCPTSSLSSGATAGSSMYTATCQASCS

Row | Structure (SMILES) | EC50
1 | COC(=O)N1Cc2ccc(COc3nc(-c4cc(F)c(Cc5nc6c(F)cc(C(=O)O)cc6n5C[C@@H]5CCO5)cc4F)ccc3F)cc2C1 [Example 515, (S)-2-(2,5-difluoro-4-(5-fluoro-6-((2-(methoxycarbonyl)isoindolin-5-yl)methoxy)pyridin-2-yl)benzyl)-4-fluoro-1-(oxetan-2-ylmethyl)-1H-benzo[d]imidazole-6-carboxylic acid] | 0.074 nM
2 | COC(=O)N1Cc2ccc(COc3nc(-c4cc(F)c(Cc5nc6ccc(C(=O)O)cc6n5C[C@@H]5CCO5)cc4F)ccc3F)cc2C1 [Example 516, (S)-2-(2,5-difluoro-4-(5-fluoro-6-((2-(methoxycarbonyl)isoindolin-5-yl)methoxy)pyridin-2-yl)benzyl)-1-(oxetan-2-ylmethyl)-1H-benzo[d]imidazole-6-carboxylic acid] | 0.088 nM
3 | CS(=O)(=O)N1Cc2ccc(COc3cccc(-c4cc(F)c(Cc5nc6c(F)cc(C(=O)O)cc6n5C[C@@H]5CCO5)cc4F)n3)cc2C1 [Example 517, (S)-2-(2,5-difluoro-4-(6-((2-(methylsulfonyl)isoindolin-5-yl)methoxy)pyridin-2-yl)benzyl)-4-fluoro-1-(oxetan-2-ylmethyl)-1H-benzo[d]imidazole-6-carboxylic acid] | 0.024 nM
4 | CO[C@@H](C)Cn1c(Cc2cc(F)c(-c3cccc(OCc4ccc(C#N)cc4F)n3)cc2F)nc2c(F)cc(C(=O)O)cc21 [Example 518, (S)-2-(4-(6-((4-cyano-2-fluorobenzyl)oxy)pyridin-2-yl)-2,5-difluorobenzyl)-4-fluoro-1-(2-methoxypropyl)-1H-benzo[d]imidazole-6-carboxylic acid] | 0.887 nM
5 | CS(=O)(=O)N1Cc2ccc(COc3cccc(-c4cc(F)c(Cc5nc6ccc(C(=O)O)cc6n5C[C@@H]5CCO5)cc4F)n3)cc2C1 [Example 519, (S)-2-(2,5-difluoro-4-(6-((2-(methylsulfonyl)isoindolin-5-yl)methoxy)pyridin-2-yl)benzyl)-1-(oxetan-2-ylmethyl)-1H-benzo[d]imidazole-6-carboxylic acid] | 0.102 nM
6 | O=C(O)c1ccc2nc(Cc3cc(F)c(-c4cccc(OCc5ccc6c(c5)CN(C(=O)C5CC5)C6)n4)cc3F)n(C[C@@H]3CCO3)c2c1 [Example 520, (S)-2-(4-(6-((2-(cyclopropanecarbonyl)isoindolin-5-yl)methoxy)pyridin-2-yl)-2,5-difluorobenzyl)-1-(oxetan-2-ylmethyl)-1H-benzo[d]imidazole-6-carboxylic acid] | 0.27 nM
7 | COC(=O)N1Cc2ccc(COc3cccc(-c4cc(F)c(Cc5nc6ccc(C(=O)O)cc6n5C[C@@H]5CCO5)cc4F)n3)cc2C1 [Example 521, (S)-2-(2,5-difluoro-4-(6-((2-(methoxycarbonyl)isoindolin-5-yl)methoxy)pyridin-2-yl)benzyl)-1-(oxetan-2-ylmethyl)-1H-benzo[d]imidazole-6-carboxylic acid] | 0.111 nM
8 | CC(=O)N1Cc2ccc(COc3cccc(-c4cc(F)c(Cc5nc6ccc(C(=O)O)cc6n5C[C@@H]5CCO5)cc4F)n3)cc2C1 [Example 522, (S)-2-(4-(6-((2-acetylisoindolin-5-yl)methoxy)pyridin-2-yl)-2,5-difluorobenzyl)-1-(oxetan-2-ylmethyl)-1H-benzo[d]imidazole-6-carboxylic acid] | 0.165 nM
9 | Cn1nnc2cc(COc3cccc(-c4cc(F)c(Cc5nc6ccc(C(=O)O)cc6n5C[C@@H]5CCO5)cc4F)n3)ccc21 [Example 523, (S)-2-(2,5-difluoro-4-(6-((1-methyl-1H-benzo[d][1,2,3]triazol-5-yl)methoxy)pyridin-2-yl)benzyl)-1-(oxetan-2-ylmethyl)-1H-benzo[d]imidazole-6-carboxylic acid] | 0.362 nM
10 | Cn1ncc2ccc(COc3cccc(-c4cc(F)c(Cc5nc6ccc(C(=O)O)cc6n5C[C@@H]5CCO5)cc4F)n3)cc21 [Example 524, (S)-2-(2,5-difluoro-4-(6-((1-methyl-1H-indazol-6-yl)methoxy)pyridin-2-yl)benzyl)-1-(oxetan-2-ylmethyl)-1H-benzo[d]imidazole-6-carboxylic acid] | 0.605 nM
11 | Cn1nnc2ccc(COc3cccc(-c4cc(F)c(Cc5nc6ccc(C(=O)O)cc6n5C[C@@H]5CCO5)cc4F)n3)cc21 [Example 525, (S)-2-(2,5-difluoro-4-(6-((1-methyl-1H-benzo[d][1,2,3]triazol-6-yl)methoxy)pyridin-2-yl)benzyl)-1-(oxetan-2-ylmethyl)-1H-benzo[d]imidazole-6-carboxylic acid] | 0.429 nM
12 | Cn1ncc2cc(COc3cccc(-c4cc(F)c(Cc5nc6ccc(C(=O)O)cc6n5C[C@@H]5CCO5)cc4F)n3)ccc21 [Example 526, (S)-2-(2,5-difluoro-4-(6-((1-methyl-1H-indazol-5-yl)methoxy)pyridin-2-yl)benzyl)-1-(oxetan-2-ylmethyl)-1H-benzo[d]imidazole-6-carboxylic acid] | 0.509 nM
13 | O=C(O)c1ccc2nc(Cc3cc(F)c(-c4cccc(OCc5ccc6nsnc6c5)n4)cc3F)n(C[C@@H]3CCO3)c2c1 [Example 527, (S)-2-(4-(6-(benzo[c][1,2,5]thiadiazol-5-ylmethoxy)pyridin-2-yl)-2,5-difluorobenzyl)-1-(oxetan-2-ylmethyl)-1H-benzo[d]imidazole-6-carboxylic acid] | 0.184 nM
14 | CC1(C)COC[C@H]1n1c(Cc2cc(F)c(-c3cccc(OCc4cnc(-n5ccnn5)cc4Cl)n3)cc2F)nc2c(Cl)cc(C(=O)O)cc21 [Example 528, (S)-4-chloro-2-(4-(6-((4-chloro-6-(1H-1,2,3-triazol-1-yl)pyridin-3-yl)methoxy)pyridin-2-yl)-2,5-difluorobenzyl)-1-(4,4-dimethyltetrahydrofuran-3-yl)-1H-benzo[d]imidazole-6-carboxylic acid] | 0.047 nM
15 | COC(=O)N1Cc2ccc(COc3cccc(-c4cc(F)c(Cc5nc6ccc(C(=O)O)cc6n5[C@@H]5COCC5(C)C)cc4F)n3)cc2C1 [Example 529, (S)-2-(2,5-difluoro-4-(6-((2-(methoxycarbonyl)isoindolin-5-yl)methoxy)pyridin-2-yl)benzyl)-1-(4,4-dimethyltetrahydrofuran-3-yl)-1H-benzo[d]imidazole-6-carboxylic acid] | 0.598 nM
16 | O=C(O)c1ccc2nc(Cc3cc(F)c(-c4cccc(OCc5ccc6ncsc6c5)n4)cc3F)n(C[C@@H]3CCO3)c2c1 [Example 530, (S)-2-(4-(6-(benzo[d]thiazol-6-ylmethoxy)pyridin-2-yl)-2,5-difluorobenzyl)-1-(oxetan-2-ylmethyl)-1H-benzo[d]imidazole-6-carboxylic acid] | 0.392 nM
17 | Cn1c(=O)sc2cc(COc3cccc(-c4cc(F)c(Cc5nc6ccc(C(=O)O)cc6n5C[C@@H]5CCO5)cc4F)n3)ccc21 [Example 531, (S)-2-(2,5-difluoro-4-(6-((3-methyl-2-oxo-2,3-dihydrobenzo[d]thiazol-6-yl)methoxy)pyridin-2-yl)benzyl)-1-(oxetan-2-ylmethyl)-1H-benzo[d]imidazole-6-carboxylic acid] | 0.396 nM
18 | COC(=O)c1ccc2nc(Cc3cc(F)c(-c4cccc(OCc5ccc(Cl)cc5F)n4)cc3F)n([C@@H]3COCC3(C)C)c2c1 [Example 532, (S)-methyl 2-(4-(6-((4-chloro-2-fluorobenzyl)oxy)pyridin-2-yl)-2,5-difluorobenzyl)-1-(4,4-dimethyltetrahydrofuran-3-yl)-1H-benzo[d]imidazole-6-carboxylate] | 3680 nM
19 | CO[C@H]1COC[C@H]1n1c(Cc2cc(F)c(-c3cccc(OCc4ccc(Cl)cc4F)n3)cc2F)nc2ccc(C(=O)O)cc21 [Example 533, 2-(4-(6-((4-chloro-2-fluorobenzyl)oxy)pyridin-2-yl)-2,5-difluorobenzyl)-1-((3R,4R)-4-methoxytetrahydrofuran-3-yl)-1H-benzo[d]imidazole-6-carboxylic acid] | 0.5 nM
20 | CO[C@H]1COC[C@H]1n1c(Cc2cc(F)c(-c3ccc(F)c(OCc4ccc(Cl)cc4F)n3)cc2F)nc2ccc(C(=O)O)cc21 [Example 534, 2-(4-(6-((4-chloro-2-fluorobenzyl)oxy)-5-fluoropyridin-2-yl)-2,5-difluorobenzyl)-1-((3R,4R)-4-methoxytetrahydrofuran-3-yl)-1H-benzo[d]imidazole-6-carboxylic acid] | 0.353 nM
21 | Cn1cc(-c2ccc(COc3cccc(-c4cc(F)c(Cc5nc6ccc(C(=O)O)cc6n5[C@@H]5COCC5(C)C)cc4F)n3)c(F)c2)cn1 [Example 535, (S)-2-(2,5-difluoro-4-(6-((2-fluoro-4-(1-methyl-1H-pyrazol-4-yl)benzyl)oxy)pyridin-2-yl)benzyl)-1-(4,4-dimethyltetrahydrofuran-3-yl)-1H-benzo[d]imidazole-6-carboxylic acid] | 0.099 nM
22 | CC1(C)COC[C@H]1n1c(Cc2cc(F)c(-c3ccc(F)c(OCc4ccc(C(F)(F)F)cc4)n3)cc2F)nc2ccc(C(=O)O)cc21 [Example 536, (S)-2-(2,5-difluoro-4-(5-fluoro-6-((4-(trifluoromethyl)benzyl)oxy)pyridin-2-yl)benzyl)-1-(4,4-dimethyltetrahydrofuran-3-yl)-1H-benzo[d]imidazole-6-carboxylic acid] | 0.083 nM
23 | CC1(C)COC[C@H]1n1c(Cc2cc(F)c(-c3ccnc(OCc4ccc(C(F)(F)F)cc4)n3)cc2F)nc2ccc(C(=O)O)cc21 [Example 537, (S)-2-(2,5-difluoro-4-(2-((4-(trifluoromethyl)benzyl)oxy)pyrimidin-4-yl)benzyl)-1-(4,4-dimethyltetrahydrofuran-3-yl)-1H-benzo[d]imidazole-6-carboxylic acid] | 0.121 nM
24 | COC[C@H]1COC[C@H]1n1c(Cc2cc(F)c(-c3ccc(F)c(OCc4ccc(C(F)(F)F)cc4)n3)cc2F)nc2ccc(C(=O)O)cc21 [Example 538, 2-(2,5-difluoro-4-(5-fluoro-6-((4-(trifluoromethyl)benzyl)oxy)pyridin-2-yl)benzyl)-1-((3S,4S)-4-(methoxymethyl)tetrahydrofuran-3-yl)-1H-benzo[d]imidazole-6-carboxylic acid] | 0.109 nM
